In patent publication US20240174624A1, “CHIRAL N-(1,3,4-OXADIAZOLE-2-YL)PHENYL CARBOXYLIC ACID AMIDES AND THEIR USE AS HERBICIDES” (Bayer Aktiengesellschaft, priority 2021, published 2024):

Columns and labels:
ORYZA [1] = experiment: Post-emergence damage to crop plants; assay type: in vivo, Oryza sativa; settings: comparative experiment
Protocol: (§1) Seeds of monocotyledonous and dicotyledonous weed and crop plants are laid out in sandy loam soil in wood-fibre pots, covered with soil and cultivated in a greenhouse under good growth conditions. 2 to 3 weeks after sowing, the test plants are treated at the one-leaf stage. The compounds of the invention, formulated in the form of wettable powders (WP) or as emulsion concentrates (EC), are then sprayed onto the green parts of the plants in the form of an aqueous suspension or emulsion at a water application rate equating to 600 to 800 l/ha, with addition of 0.2% wetting agent. After the test plants have been left to stand in the greenhouse under optimal growth conditions for about 3 weeks, the action of the preparations is assessed visually in comparison to untreated controls (herbicidal action in percent (%): 100% activity=the plants have died, 0% activity=like control plants). […] The tables below illustrate, in an illustrative manner, the post-emergence herbicidal action of the compounds of the invention, the herbicidal activity being stated in percent. In the experiments that follow, the herbicidal action of the compounds of the invention and that of the corresponding known racemic compounds closest from WO2012126932 and WO2018202535 were compared under the above-specified conditions by the pre-emergence and post-emergence method. The example numbers given in the tables relate to the compounds disclosed in the respective documents.

TRZAS [2] = experiment: Post-emergence damage to crop plants; assay type: in vivo, Triticum aestiva; settings: comparative experiment
Protocol: as §1

BRSNW = experiment: Pre-emergence damage to crop plants; assay type: in vivo, Brassica napus; settings: 20 g a.i./ha, comparative experiment
Description: (§2) Seeds of monocotyledonous and dicotyledonous weed plants and crop plants are laid out in sandy loam soil in wood-fibre pots and covered with soil. The compounds of the invention, formulated in the form of wettable powders (WP) or as emulsion concentrates (EC), are then applied to the surface of the covering soil in the form of an aqueous suspension or emulsion at a water application rate equivalent to 600 to 800 l/ha, with addition of 0.2% wetting agent. After the treatment, the pots are placed in a greenhouse and kept under good growth conditions for the trial plants. The damage to the test plants is scored visually after a test period of 3 weeks by comparison with untreated controls (herbicidal activity in percent (%): 100% activity=the plants have died, 0% activity=like control plants). […] The tables below illustrate, in an illustrative manner, the post-emergence herbicidal action of the compounds of the invention, the herbicidal activity being stated in percent. In the experiments that follow, the herbicidal action of the compounds of the invention and that of the corresponding known racemic compounds closest from WO2012126932 and WO2018202535 were compared under the above-specified conditions by the pre-emergence and post-emergence method. The example numbers given in the tables relate to the compounds disclosed in the respective documents.

ZEAMX [3] = experiment: Pre-emergence damage to crop plants; assay type: in vivo, Zea mays; settings: comparative experiment
Description: as §2

TRZAS [4] = experiment: Pre-emergence damage to crop plants; assay type: in vivo, Triticum aestiva; settings: comparative experiment
Description: as §2

GLXMA = experiment: Pre-emergence damage to crop plants; assay type: in vivo, Glycine max; settings: 80 g a.i./ha, comparative experiment
Description: as §2

ORYZA [5] = experiment: Pre-emergence damage to crop plants; assay type: in vivo, Oryza sativa; settings: 80 g a.i./ha, comparative experiment
Description: as §2

ZEAMX [6] = experiment: Post-emergence damage to crop plants; assay type: in vivo, Zea mays; settings: 80 g a.i./ha, comparative experiment
Protocol: as §1

Row | Structure (SMILES) | Damage to ORYZA (ORYZA [1]; 5 g a.i./ha) | Damage to TRZAS (TRZAS [2]; 5 g a.i./ha) | Damage to TRZAS (TRZAS [2]; 20 g a.i./ha) | Damage to BRSNW (BRSNW) | Damage to ZEAMX (ZEAMX [3]; 20 g a.i./ha) | Damage to ZEAMX (ZEAMX [3]; 80 g a.i./ha) | Damage to TRZAS (TRZAS [4]; 20 g a.i./ha) | Damage to TRZAS (TRZAS [4]; 80 g a.i./ha) | Damage to GLXMA (GLXMA) | Damage to ORYZA (ORYZA [1]; 80 g a.i./ha) | Damage to ORYZA (ORYZA [5]) | Damage to TRZAS (TRZAS [2]; 80 g a.i./ha) | Damage to ZEAMX (ZEAMX [3]; 320 g a.i./ha) | Damage to ZEAMX (ZEAMX [6])
1 | Cc1c(C(=O)Nc2nnco2)ccc(C(F)(F)F)c1[S+](C)[O-] (racemic) [1-144 from WO2012126932, 2-methyl-N-(1,3,4-oxadiazol-2-yl)-3-[(rac)-methylsulfinyl]-4-(trifluoromethyl)benzamide, reference compound] | 60% | 40% | 50% | 100% | 20% | 30% | 50% | 90% | 80% | – | – | – | – | –
2 | C[S+]([O-])c1c(C(F)(F)F)ccc(C(=O)Nc2nnco2)c1Cl (racemic) [1-360, from WO2012126932, 2-chloro-N-(1,3,4-oxadiazol-2-yl)-3-[(rac)-methylsulfinyl]-4-(trifluoromethyl)benzamide, reference compound] | – | – | – | – | – | – | – | 80% | – | 100% | 100% | 100% | 20% | 20%
